Test results from ChEMBL document CHEMBL1141204, “Carbonic anhydrase activators: X-ray crystal structure of the adduct of human isozyme II with L-histidine as a platform for the design of stronger activators” (Bioorg Med Chem Lett, 2005).

The compounds below were run against Carbonic anhydrase 4 (Homo sapiens) (UniProt P22748) (assay: Activation constant against recombinant human CA IV isozyme by the esterase method).
Assay type: functional

Sequence of Carbonic anhydrase 4 (Homo sapiens) (P22748 whole entry): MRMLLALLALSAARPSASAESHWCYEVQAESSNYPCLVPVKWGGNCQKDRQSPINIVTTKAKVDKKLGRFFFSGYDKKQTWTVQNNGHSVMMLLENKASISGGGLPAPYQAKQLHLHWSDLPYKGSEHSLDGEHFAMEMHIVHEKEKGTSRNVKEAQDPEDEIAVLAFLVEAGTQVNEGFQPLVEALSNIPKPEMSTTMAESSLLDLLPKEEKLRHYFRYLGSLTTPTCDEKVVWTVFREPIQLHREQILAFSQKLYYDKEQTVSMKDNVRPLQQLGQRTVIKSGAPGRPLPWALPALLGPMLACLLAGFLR

Row | SMILES | KA [µM]
1 | NCCC(=O)N[C@@H](Cc1c[nH]cn1)C(=O)O | 15
2 | NCCc1c[nH]cn1 | 37
3 | N[C@@H](Cc1ccccc1)C(=O)O | 4.6

Other lines, results leading:

Row | KA [µM] | SMILES
4 | 33 | N[C@@H](Cc1c[nH]cn1)C(=O)O
5 | 23 | COC(=O)[C@@H](N)Cc1c[nH]cn1
